Laboratory results reported in US6013673A, “Naphthyloxy acetic acid derivatives” (Ono Pharmaceutical Co., Ltd., priority 1994, dated 2000).

Biological target: T1, prostanoide receptor subtype (mouse EP3 α) (Mus musculus, UniProt P30557)
T1 construct: expressed in transfected cells; host or cells: CHO cells (membrane fraction)
T1 sequence (P30557 1-365): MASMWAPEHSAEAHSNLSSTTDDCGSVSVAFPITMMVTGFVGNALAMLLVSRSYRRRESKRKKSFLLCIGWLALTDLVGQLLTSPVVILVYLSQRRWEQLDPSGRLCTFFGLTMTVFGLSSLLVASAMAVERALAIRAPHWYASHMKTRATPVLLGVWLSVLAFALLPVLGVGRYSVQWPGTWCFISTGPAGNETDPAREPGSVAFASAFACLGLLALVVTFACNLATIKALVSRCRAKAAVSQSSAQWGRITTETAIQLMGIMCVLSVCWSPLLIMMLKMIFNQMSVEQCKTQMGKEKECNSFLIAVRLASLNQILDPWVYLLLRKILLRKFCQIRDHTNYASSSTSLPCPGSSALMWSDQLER
Assay: Binding assay using expression cell of prostanoide receptor subtype ([3H]-PGE2 competition)
Details: membrane fraction of CHO cells expressing mouse EP3 α; 2.5 nM [3H]-PGE2; 1 hour, room temperature; buffer pH6.0; Ki=IC50/(1+([C]/Kd)); read-out: Ki (dissociation constant)
Experimental: For example, in standard laboratory test, the effects of the compounds of the present invention were confirmed by inhibitory effect on binding PGE2 using expression cell of mouse receptor.
Binding Assay Using Expression Cell of Prostanoide Receptor Subtype
The preparation of membrane fraction was carried out according to the method of Sugimoto et al [J. Biol. Chem. 267, 6463-6466(1992)], using expression CHO cell of prostanoide receptor subtype (mouse EP3 α).
The standard assay mixture contained membrane fraction (0.5 mg/ml), [^3 H]-PGE2 in a final volume of […] was incubated for 1 hour at room temperature. The reaction was terminated by addition of 3 ml of ice-cold buffer. The mixture was rapidly filtered through a glass filter (GF/B). The radioactivity associated with the filter was measured by liquid scintillation counting.
Kd and Bmax values were determined from Scatchard plots [Ann. N.Y. Acad. Sci., 51, 660(1949)]. Non-specific binding was calculated as the bond in the presence of an excess ([…]) of unlabeled PGE2. In the experiment for competition of specific [^3 H]-PGE2 binding by the compounds of the present invention, [^3 H]-PGE2 was added at a concentration of 2.5 nM and the compounds of the present invention were at a concentration of 1 mM.
The following buffer was used in all reactions.
Buffer: 10 mM potassium phosphate (pH6.0), 1 mM EDTA, 10 mM MgCl2, 0.1 M NaCl
The dissociation constant (Ki) of each compound was calculated by the following equation.

Ki [nM] | Structure (SMILES)
5700 | COC(=O)COc1cccc2c(CCC(=O)NC(c3ccccc3)c3ccccc3)cccc12 [Example 1, [5-(2-diphenylmethylaminocarbonylethyl)naphthyl-1-oxy]acetic Acid Methyl Ester]
11 | O=C(O)COc1cccc2c(CCC(=O)NC(c3ccccc3)c3ccccc3)cccc12 [Example 2, [5-(2-diphenylmethylaminocarbonylethyl)naphthyl-1-oxy]acetic Acid]
110 | O=C(O)COc1cccc2c(CCC(=O)NN(c3ccccc3)c3ccccc3)cccc12 [Example 2a, [5-[2-(3,3-diphenylcarbazoyl)ethyl]naphthyl-1-oxy]acetic Acid]
50 | O=C(O)COc1cccc2c(CC(=O)NC(c3ccccc3)c3ccccc3)cccc12 [Example 2d, [5-(diphenylmethylaminocarbonylmethyl)naphthyl-1-oxy]acetic Acid]
830 | C[C@@H](NC(=O)CCc1cccc2c(OCC(=O)O)cccc12)c1ccccc1 [Example 2k, [5-[2-((1R)-1-phenylethyl)aminocarbonylethyl]naphthyl-1-oxy]acetic Acid]
890 | C[C@H](NC(=O)CCc1cccc2c(OCC(=O)O)cccc12)c1ccccc1 [Example 2l, [5-[2-((1S)-1-phenylethyl)aminocarbonylethyl]naphthyl-1-oxy]acetic Acid]
26 | O=C(CCc1cccc2c(OCCO)cccc12)NC(c1ccccc1)c1ccccc1 [Example 3, 2-[5-(2-diphenylmethylaminocarbonylethyl)naphthyl-1-oxy]ethanol]
23 | NC(=O)COc1cccc2c(CCC(=O)NC(c3ccccc3)c3ccccc3)cccc12 [Example 4, [5-(2-diphenylmethylaminocarbonylethyl)naphthyl-1-oxy]acetic Acid Amide]
200 | CN(C)C(=O)COc1cccc2c(CCC(=O)NC(c3ccccc3)c3ccccc3)cccc12 [Example 4a, N,N-dimethyl-[5-(2-diphenylmethylaminocarbonylethyl)naphthyl-1-oxy]acetic Acid Amide]
1300 | O=C(COc1cccc2c(CCC(=O)NC(c3ccccc3)c3ccccc3)cccc12)NCCO [Example 4b, N-(2-hydroxyethyl)-[5-(2-diphenylmethylaminocarbonylethyl)naphthyl-1-oxy]acetic Acid Amide]
68 | O=C(O)COc1cccc2c(CCNC(=O)C(c3ccccc3)c3ccccc3)cccc12 [Example 8, [5-[2-(diphenylmethylcarbonylamino)ethyl]naphthyl-1-oxy]acetic Acid]
